According to patent US20230310428A1, “EGFR INHIBITOR AND PREPARATION METHOD AND USE THEREOF” (HONGYUN BIOTECH CO., LTD., priority 2020, published 2023):
Like-named read-outs stand apart in the source and are kept apart here.

Tests used:
Assay in all cases: Growth inhibitory activity of compounds on BaF3 cell lines stably transfected with kinase (MTS, 48 h)
Format in all cases: cell-based
[1] = target: T1, various mutants of kinase EGFR (BaF3 cell lines stably transfected with kinase) (Homo sapiens, UniProt P00533, T790M, form not given)
T1 construct: other: BaF3 cells stably transfected with EGFR Δ19Del/T790M; MTS, 48 h; other: BaF3 cell line stably transfected with EGFR Δ19Del/T790M; MTS, 48
Summary of the method: (§1)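 Transfected cells received compound (max 10 µM, 8 concentrations) for 48 h; MTS readout at 490 nm yielded IC50.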

[2] = target: T2, various mutants of kinase EGFR (BaF3 cell lines stably transfected with kinase) (Homo sapiens, UniProt P00533)
T2 construct: other: BaF3 cells stably transfected with EGFR Δ19Del; MTS, 48 h; other: BaF3 cell line stably transfected with EGFR Δ19Del
Summary of the method: as §1

[3] = target: T3, various mutants of kinase EGFR (BaF3 cell lines stably transfected with kinase) (Homo sapiens, UniProt P00533, C797S/L858R/T790M)
T3 construct: expressed in transfected cells; host or cells: BaF3
Summary of the method: as §1

[4] = target: T4, various mutants of kinase EGFR (BaF3 cell lines stably transfected with kinase) (Homo sapiens, UniProt P00533, T790M/C797S, form not given)
T4 construct: other: BaF3 cells stably transfected with EGFR Δ19Del/T790M/C797S; MTS, 48; other: BaF3 cell line stably transfected with EGFR Δ19Del/T790M/C7
Summary of the method: as §1

[5] = target: T5, various mutants of kinase EGFR (BaF3 cell lines stably transfected with kinase) (Homo sapiens, UniProt P00533, L858R/T790M)
T5 construct: expressed in transfected cells; host or cells: BaF3
Summary of the method: as §1

[6] = target: T6, various mutants of kinase EGFR (BaF3 cell lines stably transfected with kinase) (Homo sapiens, UniProt P00533, L858R)
T6 construct: expressed in transfected cells; host or cells: BaF3
Summary of the method: as §1

[7] = BaF3 cell line stably transfected with EGFR Δ19Del/T790M, read-out: Δ19Del/ T790M growth inhibitory activity IC50
[8] = BaF3 cell line stably transfected with EGFR Δ19Del, read-out: Δ19Del growth inhibitory activity IC50
[9] = BaF3 cell line stably transfected with EGFR L858R/T790M/C797S, read-out: L858R/T790M/ C797S growth inhibitory activity IC50
[10] = BaF3 cell line stably transfected with EGFR Δ19Del/T790M/C797S, read-out: Δ19Del/T790M/ C797S growth inhibitory activity IC50
[11] = BaF3 cell line stably transfected with EGFR L858R/T790M, read-out: L858R/ T790M growth inhibitory activity IC50
[12] = BaF3 cell line stably transfected with EGFR L858R, read-out: L858R growth inhibitory activity IC50
[13] = BaF3 cells stably transfected with EGFR Δ19Del/T790M, read-out: IC50, growth inhibition, Δ19Del/T790M
[14] = BaF3 cells stably transfected with EGFR Δ19Del, read-out: IC50, growth inhibition, Δ19Del
[15] = BaF3 cells stably transfected with EGFR L858R/T790M/C797S, read-out: IC50, growth inhibition, L858R/T790M/C797S
[16] = BaF3 cells stably transfected with EGFR Δ19Del/T790M/C797S, read-out: IC50, growth inhibition, Δ19Del/T790M/C797S
[17] = BaF3 cells stably transfected with EGFR L858R/T790M, read-out: IC50, growth inhibition, L858R/T790M
[18] = BaF3 cells stably transfected with EGFR L858R, read-out: IC50, growth inhibition, L858R

T1 sequence (P00533 with tags, fused parts or gaps DEL746-750/T790M, form open): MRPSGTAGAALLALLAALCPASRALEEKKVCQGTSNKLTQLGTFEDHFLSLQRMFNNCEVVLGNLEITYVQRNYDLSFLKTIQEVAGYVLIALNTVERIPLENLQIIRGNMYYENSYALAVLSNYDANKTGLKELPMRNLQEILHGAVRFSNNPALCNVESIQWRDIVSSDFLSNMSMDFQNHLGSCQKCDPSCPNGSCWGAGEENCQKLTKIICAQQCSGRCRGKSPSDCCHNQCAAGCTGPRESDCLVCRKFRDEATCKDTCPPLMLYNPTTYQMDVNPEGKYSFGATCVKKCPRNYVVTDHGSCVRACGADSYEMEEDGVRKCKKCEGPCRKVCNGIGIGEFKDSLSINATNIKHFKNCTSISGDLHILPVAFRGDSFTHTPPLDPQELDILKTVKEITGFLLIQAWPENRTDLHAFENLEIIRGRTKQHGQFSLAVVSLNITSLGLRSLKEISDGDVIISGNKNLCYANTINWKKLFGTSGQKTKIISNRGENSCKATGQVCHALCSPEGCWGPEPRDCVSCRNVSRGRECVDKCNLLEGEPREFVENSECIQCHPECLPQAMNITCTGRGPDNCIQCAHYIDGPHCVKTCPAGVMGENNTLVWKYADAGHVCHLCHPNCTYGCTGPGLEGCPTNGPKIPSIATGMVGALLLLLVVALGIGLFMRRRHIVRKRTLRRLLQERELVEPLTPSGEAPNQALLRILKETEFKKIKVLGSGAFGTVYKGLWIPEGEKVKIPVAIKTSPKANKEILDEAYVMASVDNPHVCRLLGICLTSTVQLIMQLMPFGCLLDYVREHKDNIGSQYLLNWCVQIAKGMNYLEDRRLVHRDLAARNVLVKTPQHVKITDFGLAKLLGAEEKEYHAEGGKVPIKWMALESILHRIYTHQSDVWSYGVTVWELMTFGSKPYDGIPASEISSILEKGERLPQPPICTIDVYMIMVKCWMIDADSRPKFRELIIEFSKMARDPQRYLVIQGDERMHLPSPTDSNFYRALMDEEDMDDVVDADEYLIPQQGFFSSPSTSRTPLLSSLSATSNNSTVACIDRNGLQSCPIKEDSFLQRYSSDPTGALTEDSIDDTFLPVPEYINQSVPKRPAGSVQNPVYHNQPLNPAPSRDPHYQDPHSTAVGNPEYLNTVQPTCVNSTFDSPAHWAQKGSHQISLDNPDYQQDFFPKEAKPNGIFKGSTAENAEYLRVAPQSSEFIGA
T6 sequence (P00533 25-1210 L858R): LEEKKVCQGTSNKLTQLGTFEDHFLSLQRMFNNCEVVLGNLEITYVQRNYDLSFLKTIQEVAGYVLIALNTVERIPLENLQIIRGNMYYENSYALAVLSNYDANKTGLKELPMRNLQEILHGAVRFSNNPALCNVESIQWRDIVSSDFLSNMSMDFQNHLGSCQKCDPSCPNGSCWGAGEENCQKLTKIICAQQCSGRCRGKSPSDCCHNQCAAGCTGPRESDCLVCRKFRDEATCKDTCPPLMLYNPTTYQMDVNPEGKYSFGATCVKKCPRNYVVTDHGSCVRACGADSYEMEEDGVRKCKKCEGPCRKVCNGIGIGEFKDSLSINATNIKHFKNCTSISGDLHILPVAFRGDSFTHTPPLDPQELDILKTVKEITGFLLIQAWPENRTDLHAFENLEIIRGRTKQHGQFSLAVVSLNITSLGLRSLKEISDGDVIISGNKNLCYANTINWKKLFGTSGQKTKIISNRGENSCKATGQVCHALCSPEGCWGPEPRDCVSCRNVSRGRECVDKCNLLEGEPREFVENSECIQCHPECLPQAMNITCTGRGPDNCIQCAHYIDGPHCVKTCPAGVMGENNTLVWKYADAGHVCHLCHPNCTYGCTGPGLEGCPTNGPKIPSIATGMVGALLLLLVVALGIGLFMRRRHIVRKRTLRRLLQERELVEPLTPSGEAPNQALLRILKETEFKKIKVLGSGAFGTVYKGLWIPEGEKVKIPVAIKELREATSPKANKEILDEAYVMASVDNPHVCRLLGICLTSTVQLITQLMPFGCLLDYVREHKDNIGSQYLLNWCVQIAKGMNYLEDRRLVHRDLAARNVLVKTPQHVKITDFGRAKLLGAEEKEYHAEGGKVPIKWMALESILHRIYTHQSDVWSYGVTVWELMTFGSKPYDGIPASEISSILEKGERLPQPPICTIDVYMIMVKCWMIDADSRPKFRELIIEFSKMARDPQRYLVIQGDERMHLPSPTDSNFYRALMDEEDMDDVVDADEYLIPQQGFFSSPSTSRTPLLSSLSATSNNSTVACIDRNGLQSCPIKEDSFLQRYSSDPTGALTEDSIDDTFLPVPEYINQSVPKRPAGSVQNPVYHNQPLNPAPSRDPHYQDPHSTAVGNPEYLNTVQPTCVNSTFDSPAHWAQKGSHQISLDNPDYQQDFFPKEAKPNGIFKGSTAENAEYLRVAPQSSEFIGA
T4 sequence (P00533 with tags, fused parts or gaps DEL746-750/T790M/C797S, form open): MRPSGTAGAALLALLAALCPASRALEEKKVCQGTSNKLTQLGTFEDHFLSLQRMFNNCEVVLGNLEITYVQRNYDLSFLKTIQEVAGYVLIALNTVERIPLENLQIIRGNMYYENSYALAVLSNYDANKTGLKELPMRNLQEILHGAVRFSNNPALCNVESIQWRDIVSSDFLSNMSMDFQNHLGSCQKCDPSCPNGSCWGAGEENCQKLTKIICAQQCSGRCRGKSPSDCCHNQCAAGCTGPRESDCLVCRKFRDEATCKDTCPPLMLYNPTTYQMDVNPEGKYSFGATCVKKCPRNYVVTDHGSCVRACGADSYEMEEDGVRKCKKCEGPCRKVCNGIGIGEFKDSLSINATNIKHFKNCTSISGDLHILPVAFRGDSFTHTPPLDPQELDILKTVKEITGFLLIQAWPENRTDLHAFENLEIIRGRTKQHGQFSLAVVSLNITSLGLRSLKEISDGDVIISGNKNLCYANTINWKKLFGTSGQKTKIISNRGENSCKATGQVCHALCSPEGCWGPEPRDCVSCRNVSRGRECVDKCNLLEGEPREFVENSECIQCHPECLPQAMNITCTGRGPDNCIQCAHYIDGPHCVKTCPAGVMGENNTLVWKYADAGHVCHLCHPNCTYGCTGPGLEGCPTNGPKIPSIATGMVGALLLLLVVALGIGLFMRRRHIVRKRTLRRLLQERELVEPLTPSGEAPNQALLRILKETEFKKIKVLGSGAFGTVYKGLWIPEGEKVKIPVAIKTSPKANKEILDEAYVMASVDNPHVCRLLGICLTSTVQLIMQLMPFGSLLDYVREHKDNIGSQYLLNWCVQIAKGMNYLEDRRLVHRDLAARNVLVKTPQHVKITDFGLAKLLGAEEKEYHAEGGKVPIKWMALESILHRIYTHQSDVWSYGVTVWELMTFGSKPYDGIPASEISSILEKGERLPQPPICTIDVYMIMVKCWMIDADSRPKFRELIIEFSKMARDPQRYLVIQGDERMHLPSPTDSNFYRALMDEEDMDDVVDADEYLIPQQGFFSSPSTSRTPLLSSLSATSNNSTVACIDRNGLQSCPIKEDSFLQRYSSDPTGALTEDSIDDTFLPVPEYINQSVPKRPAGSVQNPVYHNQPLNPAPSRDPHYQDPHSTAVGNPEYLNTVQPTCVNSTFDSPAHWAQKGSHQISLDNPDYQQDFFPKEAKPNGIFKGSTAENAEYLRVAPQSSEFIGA
T2 sequence (P00533 with tags, fused parts or gaps DEL746-750): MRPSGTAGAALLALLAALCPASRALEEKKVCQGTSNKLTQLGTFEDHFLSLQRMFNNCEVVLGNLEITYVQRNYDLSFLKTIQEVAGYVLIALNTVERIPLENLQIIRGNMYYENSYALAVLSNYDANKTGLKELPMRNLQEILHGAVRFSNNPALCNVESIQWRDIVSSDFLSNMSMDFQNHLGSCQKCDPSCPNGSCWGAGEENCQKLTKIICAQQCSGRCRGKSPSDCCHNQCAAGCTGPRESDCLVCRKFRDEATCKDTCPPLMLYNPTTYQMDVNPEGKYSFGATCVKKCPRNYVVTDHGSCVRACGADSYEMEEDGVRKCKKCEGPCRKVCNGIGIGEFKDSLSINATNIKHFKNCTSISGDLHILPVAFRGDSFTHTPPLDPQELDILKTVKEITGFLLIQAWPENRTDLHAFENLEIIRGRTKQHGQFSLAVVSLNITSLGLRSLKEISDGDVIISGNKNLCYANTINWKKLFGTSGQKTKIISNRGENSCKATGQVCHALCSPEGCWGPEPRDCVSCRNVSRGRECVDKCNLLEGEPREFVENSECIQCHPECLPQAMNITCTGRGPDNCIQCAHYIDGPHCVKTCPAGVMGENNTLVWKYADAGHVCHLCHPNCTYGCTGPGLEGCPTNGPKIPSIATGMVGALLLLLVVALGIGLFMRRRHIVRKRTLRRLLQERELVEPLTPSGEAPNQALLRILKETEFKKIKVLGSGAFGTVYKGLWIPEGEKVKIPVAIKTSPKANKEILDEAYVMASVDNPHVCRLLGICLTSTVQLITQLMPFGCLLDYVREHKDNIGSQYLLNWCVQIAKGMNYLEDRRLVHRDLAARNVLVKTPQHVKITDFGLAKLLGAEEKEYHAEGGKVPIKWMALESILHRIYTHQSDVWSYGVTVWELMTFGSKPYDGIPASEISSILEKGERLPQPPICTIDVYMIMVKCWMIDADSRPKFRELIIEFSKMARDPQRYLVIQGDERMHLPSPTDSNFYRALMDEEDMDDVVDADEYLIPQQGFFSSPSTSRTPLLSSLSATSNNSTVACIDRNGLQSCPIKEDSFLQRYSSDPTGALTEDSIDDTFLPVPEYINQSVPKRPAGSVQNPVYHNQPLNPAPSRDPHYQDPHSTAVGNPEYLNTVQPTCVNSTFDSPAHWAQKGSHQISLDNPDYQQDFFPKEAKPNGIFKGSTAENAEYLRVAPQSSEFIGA

| IC50 [1, 7] [nM] | IC50 [2, 8] [nM] | IC50 [3, 9] [nM] | IC50 [4, 10] [nM] | IC50 [5, 11] [nM] | IC50 [6, 12] [nM] | IC50 [1, 13] [nM] | IC50 [2, 14] [nM] | IC50 [3, 15] [nM] | IC50 [4, 16] [nM] | IC50 [5, 17] [nM] | IC50 [6, 18] [nM] | SMILES |
| --- | --- | --- | --- | --- | --- | --- | --- | --- | --- | --- | --- | --- |
| 50 to 500 | 50 to 500 | 50 to 500 | 50 to 500 | 50 to 500 | 50 to 500 |  |  |  |  |  |  | COc1cc(N2CCC(N3CCN(C)CC3)CC2)c(C)cc1Nc1ncc(C(C)C)c(Nc2ccc3nccnc3c2N(C)S(C)(=O)=O)n1 [Compound I-326] |
|  |  |  |  |  |  | 50 to 500 | 50 to 500 | 50 to 500 | 50 to 500 | 50 to 500 | 50 to 500 | CN1CCN(C2CCN(c3ccc(Nc4ncc(C(F)(F)F)c(Nc5ccc6nccnc6c5N(C)S(C)(=O)=O)n4)c(OC(F)(F)F)c3)CC2)CC1 [Compound I-200] |
|  |  |  |  |  |  | 50 to 500 | 50 to 500 | 50 to 500 | ≤ 50 | 50 to 500 | 50 to 500 | C=Cc1cc(Nc2ncc(Cl)c(Nc3ccc4nccnc4c3N(C)S(=O)(=O)CC)n2)c(OC(F)(F)F)cc1N1CCC(N2CCN(C)CC2)CC1 [Compound I-295] |
|  |  |  |  |  |  | ≤ 50 | ≤ 50 | ≤ 50 | ≤ 50 | ≤ 50 | ≤ 50 | COc1cc(N2CCC(N3CCCC3)CC2)ccc1Nc1ncc(Br)c(Nc2ccc3nccnc3c2N(C)S(C)(=O)=O)n1 [Compound I-41] |
| ≤ 50 | ≤ 50 | ≤ 50 | 50 to 500 | ≤ 50 | ≤ 50 |  |  |  |  |  |  | CCc1cc(Nc2nccc(Nc3ccc4nccnc4c3N(C)S(C)(=O)=O)n2)c(OC)cc1N1CCC(N2CCN(C)CC2)CC1 [Compound I-341] |
| 500 to 2500 | 500 to 2500 | 500 to 2500 | 50 to 500 | 50 to 500 | 50 to 500 |  |  |  |  |  |  | CCc1cc(Nc2nc(Nc3ccc4nccnc4c3N(C)S(C)(=O)=O)c3[nH]ccc3n2)c(OC)cc1N1CCC(N2CCN(C)CC2)CC1 [II-1-20] |
|  |  |  |  |  |  | ≤ 50 | ≤ 50 | ≤ 50 | ≤ 50 | ≤ 50 | ≤ 50 | CCc1cc(Nc2ncc(C)c(Nc3ccc4nccnc4c3N(C)S(C)(=O)=O)n2)c(OC)cc1N1CCC(N(C)C)C1 (stereo not drawn) [Compound I-280] |
|  |  |  |  |  |  | 500 to 2500 | 500 to 2500 | 50 to 500 | 50 to 500 | 50 to 500 | 500 to 2500 | COc1cc(N2CCC(N3CCN(C)CC3)CC2)ccc1Nc1ncc(Br)c(Nc2ccc3nccnc3c2N(C)S(=O)(=O)C(F)(F)F)n1 [Compound I-256] |
|  |  |  |  |  |  | ≤ 50 | 50 to 500 | ≤ 50 | ≤ 50 | ≤ 50 | ≤ 50 | COc1cc(N2CCN(C)CC2)c(C)cc1Nc1ncc(Cl)c(Nc2ccc3nccnc3c2N(C)S(C)(=O)=O)n1 [Compound I-171] |
|  |  |  |  |  |  | 50 to 500 | 500 to 2500 | 50 to 500 | 50 to 500 | 500 to 2500 | 500 to 2500 | CCc1cc(Nc2ncc(Cl)c(Nc3ccc4nccnc4c3N(C)S(=O)(=O)C(F)(F)F)n2)c(OC)nc1N1CCC(N2CCN(C)CC2)CC1 [Compound I-262] |
| ≤ 50 | 50 to 500 | ≤ 50 | ≤ 50 | ≤ 50 | 50 to 500 |  |  |  |  |  |  | COc1ccc(N2CCC(O)CC2)cc1Nc1ncc(C(F)(F)F)c(Nc2ccc3nccnc3c2N(C)S(C)(=O)=O)n1 [Compound I-369] |
| 50 to 500 | 50 to 500 | ≤ 50 | ≤ 50 | 50 to 500 | 50 to 500 |  |  |  |  |  |  | CCc1cc(Nc2ncc(Br)c(Nc3ccc4nccnc4c3N(C)S(C)(=O)=O)n2)c(OC)cc1NCCN(C)C [Compound I-391] |
|  |  |  |  |  |  | ≤ 50 | ≤ 50 | ≤ 50 | ≤ 50 | ≤ 50 | ≤ 50 | CCc1cc(Nc2ncc(Br)c(Nc3ccc4nccnc4c3N(C)S(C)(=O)=O)n2)c(OC)cc1N1CCC(N(C)C)C1 (stereo not drawn) [Compound I-17] |
|  |  |  |  |  |  | 50 to 500 | 500 to 2500 | 50 to 500 | 50 to 500 | 500 to 2500 | 500 to 2500 | CCc1cc(Nc2ncc(Br)c(Nc3ccc4nccnc4c3N(C)S(=O)(=O)C(F)(F)F)n2)c(OC(F)(F)F)cc1N1CCC(N2CCN(C)CC2)CC1 [Compound I-126] |
